According to ChEMBL document CHEMBL1201862, “PubChem BioAssay data set” (2004):
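Protocol summary: plate cells (96-well), add compound at 5 concentrations, incubate 48 h, interpolate endpoints linearly. Here, GI50 denotes the concentration required for 50% inhibition of growth.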 The source made the active and inactive calls. Cut-off read from the data, not from the text of the source: active = GI50 up to about 1.1 µM and inactive = higher.

Assays:
Assay in all cases: growth of human tumour cells (NCI), 48 h
MOLT-4 = tested on: MOLT-4
CCRF-CEM = tested on: CCRF-CEM
HT-29 = tested on: HT-29
SNB-19 = tested on: SNB-19
HCT-116 = tested on: HCT-116
786-0 = tested on: 786-0
DMS-273 = tested on: DMS-273
M14 = tested on: M14
NCI-H23 = tested on: NCI-H23
KM12 = tested on: KM12
COLO 205 = tested on: COLO 205
RXF 631 = tested on: RXF 631
CAKI-1 = tested on: CAKI-1
HCC 2998 = tested on: HCC 2998
SN12C = tested on: SN12C
SF-295 = tested on: SF-295
M19-MEL = tested on: M19-MEL
UACC-257 = tested on: UACC-257
K562 = tested on: K562
TK-10 = tested on: TK-10
RXF 393 = tested on: RXF 393
HOP-92 = tested on: HOP-92
NCI-H226 = tested on: NCI-H226
HCT-15 = tested on: HCT-15
OVCAR-4 = tested on: OVCAR-4
IGROV-1 = tested on: IGROV-1
SK-MEL-28 = tested on: SK-MEL-28
ACHN = tested on: ACHN
A549 = tested on: A549
NCI-H522 = tested on: NCI-H522
DMS-114 = tested on: DMS-114
OVCAR-5 = tested on: OVCAR-5
SF-268 = tested on: SF-268
Malme-3M = tested on: Malme-3M
SR = tested on: SR
NCI-H460 = tested on: NCI-H460
SW-620 = tested on: SW-620
LOX IMVI = tested on: LOX IMVI
SF-539 = tested on: SF-539
LXFL 529 = tested on: LXFL 529
SK-MEL-5 = tested on: SK-MEL-5
HOP-62 = tested on: HOP-62
XF498 = tested on: XF498
UO-31 = tested on: UO-31
SNB-75 = tested on: SNB-75
UACC-62 = tested on: UACC-62
U-251 = tested on: U-251
OVCAR-3 = tested on: OVCAR-3
HOP-18 = tested on: HOP-18
SK-MEL-2 = tested on: SK-MEL-2
RPMI-8226 = tested on: RPMI-8226
DLD-1 = tested on: DLD-1
A498 = tested on: A498
OVCAR-8 = tested on: OVCAR-8
KM-20L2 = tested on: KM-20L2
SK-OV-3 = tested on: SK-OV-3
HL-60 = tested on: HL-60
EKVX = tested on: EKVX
SNB-78 = tested on: SNB-78

Measured: GI50

COc1cccc(/C=C2\CCC(CCN(C)C)(C3=CCCC3)C2=O)c1 (centres undefined)
16.2 µM: HCT-15
inactive: MOLT-4 13.9 µM | CCRF-CEM 19.1 µM | HT-29 13.8 µM | SNB-19 16.8 µM | HCT-116 13.8 µM | 786-0 14.7 µM | DMS-273 14.4 µM | M14 14.4 µM | NCI-H23 19.3 µM | KM12 17.2 µM | COLO 205 8.3 µM | RXF 631 23.7 µM | CAKI-1 12.3 µM | HCC 2998 16.7 µM | SN12C 14.9 µM | SF-295 17 µM | M19-MEL 16.4 µM | UACC-257 15.5 µM | K562 15.5 µM | TK-10 15.8 µM | RXF 393 8.73 µM | HOP-92 12.3 µM | NCI-H226 17.1 µM | OVCAR-4 16.4 µM | IGROV-1 15.8 µM | SK-MEL-28 15.9 µM | ACHN 16.7 µM | A549 16.1 µM | NCI-H522 13.4 µM | DMS-114 14.3 µM | OVCAR-5 14.6 µM | SF-268 21.3 µM | Malme-3M 15.6 µM | SR 35.5 µM | NCI-H460 15.8 µM | SW-620 13.9 µM | LOX IMVI 15.6 µM | SF-539 16.1 µM | LXFL 529 15.5 µM | SK-MEL-5 17.7 µM | HOP-62 17.2 µM | XF498 17.7 µM | UO-31 13.6 µM | SNB-75 15.9 µM | UACC-62 15.4 µM | U-251 16.6 µM | OVCAR-3 17.3 µM | HOP-18 13.7 µM | SK-MEL-2 15.9 µM | RPMI-8226 11.7 µM | DLD-1 17.8 µM | A498 15.7 µM | OVCAR-8 17.3 µM

CCN(CC)c1ccc2c(c1)Oc1ccc(N(CC)CC)cc1C21Oc2ccccc2-c2c1c1ccccc1n2CC (centres undefined)
active: HCT-116 1.05 µM | KM-20L2 0.875 µM | K562 0.679 µM | HOP-92 0.302 µM | DMS-114 0.506 µM | XF498 1.06 µM | HOP-18 0.614 µM | RPMI-8226 0.592 µM
3.82 µM: HCT-15
inactive: MOLT-4 2.88 µM | CCRF-CEM 1.44 µM | HT-29 1.22 µM | SNB-19 6.87 µM | 786-0 4.05 µM | DMS-273 3.4 µM | M14 3.07 µM | NCI-H23 2.07 µM | COLO 205 2.45 µM | RXF 631 6.1 µM | SK-OV-3 4.07 µM | CAKI-1 5.15 µM | HCC 2998 3.07 µM | SN12C 3.68 µM | SF-295 2.7 µM | UACC-257 2.89 µM | HL-60 1.25 µM | RXF 393 1.81 µM | NCI-H226 7.74 µM | OVCAR-4 3.58 µM | SK-MEL-28 2 µM | ACHN 1.32 µM | A549 3.18 µM | NCI-H522 1.3 µM | EKVX 6.47 µM | SF-268 2.38 µM | Malme-3M 1.73 µM | SR 4.48 µM | SNB-78 7.36 µM | SW-620 3.58 µM | LOX IMVI 3.24 µM | LXFL 529 3.36 µM | SK-MEL-5 1.56 µM | UO-31 1.43 µM | SNB-75 > 100 µM | UACC-62 1.85 µM | U-251 1.68 µM | OVCAR-3 1.25 µM | DLD-1 3.48 µM | A498 8.34 µM | OVCAR-8 6.18 µM
